BigSolDB 2.1

For `O=[N+]([O-])/N=C1\NCCN1Cc1ccc(Cl)nc1`, the solubility (mole fraction) (in acetone, 283.15 K) was 0.00862, the solubility (mole fraction) (in acetone, 288.15 K) was 0.0102 and the solubility (mole fraction) (in acetone, 293.15 K) was 0.012. The solubility (mole fraction) (in acetone, 298.15 K) was 0.014, the solubility (mole fraction) (in acetone, 303.15 K) was 0.0163 and the solubility (mole fraction) (in acetone, 308.15 K) was 0.0188. The solubility (mole fraction) (in acetone, 313.15 K) was 0.0218, the solubility (mole fraction) (in acetone, 318.15 K) was 0.0249 and the solubility (mole fraction) (in acetone, 323.15 K) was 0.0285. It also gave a solubility (mole fraction) (in ethanol, 283.15 K) of 0.000303, a solubility (mole fraction) (in ethanol, 288.15 K) of 0.0004 and a solubility (mole fraction) (in ethanol, 293.15 K) of 0.00053. It also gave a solubility (mole fraction) (in ethanol, 298.15 K) of 0.000699, a solubility (mole fraction) (in ethanol, 303.15 K) of 0.000895 and a solubility (mole fraction) (in ethanol, 308.15 K) of 0.00115. It also gave a solubility (mole fraction) (in ethanol, 313.15 K) of 0.00148, a solubility (mole fraction) (in ethanol, 318.15 K) of 0.00191 and a solubility (mole fraction) (in ethanol, 323.15 K) of 0.00238. The solubility (mole fraction) (in methanol, 283.15 K) was 0.000689, the solubility (mole fraction) (in methanol, 288.15 K) was 0.000882 and the solubility (mole fraction) (in methanol, 293.15 K) was 0.00112. For the same compound, the solubility (mole fraction) (in methanol, 298.15 K) was 0.00141, the solubility (mole fraction) (in methanol, 303.15 K) was 0.00177 and the solubility (mole fraction) (in methanol, 308.15 K) was 0.00221. The solubility (mole fraction) (in methanol, 313.15 K) was 0.00274, the solubility (mole fraction) (in methanol, 318.15 K) was 0.00339 and the solubility (mole fraction) (in methanol, 323.15 K) was 0.0041. For the same compound, the solubility (mole fraction) (in n-propanol, 283.15 K) was 0.000266, the solubility (mole fraction) (in n-propanol, 288.15 K) was 0.000362 and the solubility (mole fraction) (in n-propanol, 293.15 K) was 0.000475. It also gave a solubility (mole fraction) (in n-propanol, 298.15 K) of 0.00064, a solubility (mole fraction) (in n-propanol, 303.15 K) of 0.000837 and a solubility (mole fraction) (in n-propanol, 308.15 K) of 0.00109. The solubility (mole fraction) (in n-propanol, 313.15 K) was 0.0014, the solubility (mole fraction) (in n-propanol, 318.15 K) was 0.00179 and the solubility (mole fraction) (in n-propanol, 323.15 K) was 0.00228. It also gave a solubility (mole fraction) (in water, 283.15 K) of 6.79e-06, a solubility (mole fraction) (in water, 288.15 K) of 9.67e-06 and a solubility (mole fraction) (in water, 293.15 K) of 1.36e-05. For the same compound, the solubility (mole fraction) (in water, 298.15 K) was 1.87e-05, the solubility (mole fraction) (in water, 303.15 K) was 2.56e-05 and the solubility (mole fraction) (in water, 308.15 K) was 3.43e-05. For the same compound, the solubility (mole fraction) (in water, 313.15 K) was 4.71e-05, the solubility (mole fraction) (in water, 318.15 K) was 6.23e-05 and the solubility (mole fraction) (in water, 323.15 K) was 8.15e-05.
